Assay results published in US12594265B2, “Methods and compositions for inhibition of STAT3” (Ohio State Innovation Foundation, priority 2017, dated 2026).
Read-outs that look alike come from different tables or passages of the source. Each block holds one compound with its values, some of them ahead of it.

Columns and labels:
in vivo = test: in vivo; set-up: species or system mice
[1] = system: IL-17 production in PBMCs from MS patients; assay type: cell-based, human; settings: for IL-17 production in PBMCs from MS patients: activated with anti-CD3 for three or six days, different concentrations
Method: FIGS. 14A-14M show representative data for LLL12b suppression of human Th17 development and promotion of Treg development in CD4 T-cells from MS patients. FIGS. 14A, 14E, 14H, and 14K each shown representative data obtained in PBMCs from 22 treatment-naïve MS patients that were activated with αhCD3 plus rhIL-6 for 3 days, in the presence of 0.125 μM or 0.25 μM of LLL12b. DMSO was used as a vehicle control. IL-17 in supernatant was determined by ELISA. FIGS. 14B-14C, 14F, 14I, and 14L each shown representative data obtained in PBMCs from 22 treatment-naïve MS patients that were activated with αhCD3/CD28 plus rhTGFβ. rhIL-2 and RA for 3 days, in the presence of 0.125 μM of LLL12b. DMSO was used as vehicle control. CD25+FoxP3+CD4+ iTregs were determined by intracellular flow cytometry. Cells were gated CD45RA+CD4+ cells. […] IL-17 in each group was compared with one-way ANOVA. […] FIG. 14G the calculated IL-17/Treg ratio of each patient in LLL12b group and DMSO group and compared with Wilcoxon matched-pairs signed rank test. […] FIG. 14J the calculated percent decrease of IL-17/Treg ratio in LLL12b group compared to DMSO group. […] FIG. 14M patient numbers in different ranges of calculated percent decrease of IL-17/Treg.
FIGS. 12A-12B show representative data for the effect of a representative disclosed compound, LLL12b, on the production of proinflammatory cytokines in human peripheral blood mononuclear cells (PBMCs).
LLL12b reduces Teff/Treg ratio by suppressing human Th17 development and promoting Treg development of CD4 T cells from MS patients. Teff/Treg balance is critical for the normal function of the human immune system and increased Teff/Treg ratio favors autoimmunity. As IL-6/STAT3 signaling pathway is critical for the highly encephalitogenic Th17 cells while blocks the development of inducible Tregs (iTregs), we hypothesize that novel small molecule STAT3 inhibitor LLL12b will reduces Teff/Treg ratio by suppressing Th17 development and/or prompting iTreg development. Therefore, we determined the effects of LLL12b on IL-17 production and iTreg development of CD4 T cells from 22 treatment-naïve MS patients (FIGS. 14A-14M). Human PBMCs from 22 treatment-naïve MS patients were activated with αhCD3 for 3 days, in the presence of different concentrations of LLL12b or vehicle control (DMSO), IL-17 production in supernatants was determined by ELISA. As the myelin-reactive CD4 T cells in MS patients are predominantly from the memory T-cell compartment, we activated human PBMCs with αhCD3 to specifically activate effector/memory CD4 T cells.
To determine whether LLL12b treatment decreases Th17/Treg ratio in CD4 T cells from MS patients, the IL-17/Treg ratio of all 22 treatment-naïve MS patients treated with LLL12b was calculated and compared with those treated with DMSO (FIGS. 14G, 14J, and 14M). The data in Table 2 show the patient numbers in different ranges of percentage decrease of IL-17, percentage increase of iTregs or percentage decrease of IL-17/iTreg of 22 treatment-naïve MS patients treated with LLL12b compared to DMSO treatment.

[2] = system: relapsing-remitting EAE model of MS; test: Relapsing-remitting EAE model of MS (PLP-immunized SJL mice); assay type: in vivo; settings: 10 mg/kg daily, days 9-15 or days 36-42
Method: EAE Induction. Immunization: 8-10 week old B6/WT or SJL/WT mice were s.c. injected over four sites in the flank with 200 μg MOG 35-55 or […] (CS bio) in an emulsion with CFA (Difco). 200 ng pertussis toxin (List) per mouse in PBS was injected i.p. at the time of immunization and 48 h later. Adoptive transfer: Splenocytes were isolated from naïve 5-10-week-old Vα2.3/Vβ8.2 TCR transgenic mice and activated with 10 μg/ml of MBP Ac1-11 with or without rmIL-6 in 24-well plates at […] with irradiated B10.PL splenocytes (6×10^8 cells/well). After 72 hours, the cells were washed with PBS and 8×10^6 were injected i.p. into naïve B10.PL mice. Evaluation. The mice were evaluated daily for clinical signs of EAE. Mice were scored on scale of 0 to 6:0, no clinical disease; 1, limp/flaccid tail; 2, moderate hind limb weakness; 3. severe hind limb weakness; 4. complete hind limb paralysis; 5 quadriplegia or premoribund state; and 6, death.
SJL mice develop relapsing-remitting disease after immunization with PLP 139-151, which resembles human relapsing-remitting MS, the major subtype of MS that affects more than 85% of MS patients. […]

[3] = mouse, in vivo, mice, Intravenous 2 mg/kg
[4] = mouse, in vivo, mice, Oral 8 mg/kg
[5] = of 22 treatment-naïve MS patients, compared to DMSO

- Tmax (in vivo; mouse, in vivo): 5 to 10 min
- time until cleared (in vivo; mouse, in vivo): ~60 min
- AUC (in vivo; mouse, in vivo, ip, 20 mg/kg): 0.431 µM·h
- AUC(0-inf) (in vivo; mouse, in vivo, ip, 20 mg/kg): 0.438 µM·h
- Cmax (in vivo; mouse, in vivo, ip, 20 mg/kg): 922 nM
- Tmax (in vivo; mouse, in vivo, ip, 20 mg/kg): 10 min
- bioavailability (in vivo; mouse, in vivo, ip, 20 mg/kg): 29.1%
- AUC (in vivo; mouse, in vivo, iv, 5 mg/kg): 0.373 µM·h
- AUC(0-inf) (in vivo; mouse, in vivo, iv, 5 mg/kg): 0.377 µM·h
- Cmax (in vivo; mouse, in vivo, iv, 5 mg/kg): 978 nM
- Tmax (in vivo; mouse, in vivo, iv, 5 mg/kg): 10 min
- bioavailability (in vivo; mouse, in vivo, iv, 5 mg/kg): 100%
- time until cleared (in vivo; mouse, in vivo, po): about 30 minutes
- AUC (in vivo; mouse, in vivo, po, 20 mg/kg): 0.0407 µM·h
- Cmax (in vivo; mouse, in vivo, po, 20 mg/kg): 176 nM
- Tmax (in vivo; mouse, in vivo, po, 20 mg/kg): 4.98 min
- bioavailability (in vivo; mouse, in vivo, po, 20 mg/kg): 2.73%
SMILES: NS(=O)(=O)c1cccc2c1C(=O)c1cccc(O)c1C2=O [LLL12]
- IL-17 production in PBMCs from MS patients [1]: suppress IL-17 production

SMILES: CN(C)C(=O)Oc1cccc2c1C(=O)c1cccc(S(N)(=O)=O)c1C2=O [LLL12b]
- duration of sustained effective concentration (in vivo; mice, IV): about 4 hours
- duration of sustained effective concentration (in vivo; mice, PO): about 8 hours
- AUC(0-t) (in vivo; [3]): 892 ± 131 ng·h/mL
- Vd (in vivo; [3]): 12.4 ± 2.89 L/kg
- clearance (in vivo; [3]): 36.5 mL/min/kg
- half-life (in vivo; [3]): 233 ± 27 min
- Cmax (in vivo; mouse, in vivo, mice, Intravenous 2 mg/kg, read-out: Co/Cmax): 2880 ± 935 ng/mL
- AUC(0-t) (in vivo; [4]): 1360 ± 396 ng·h/mL
- half-life (in vivo; [4]): 461 ± 115 min
- Cmax (in vivo; mouse, in vivo, mice, Oral 8 mg/kg, read-out: Co/Cmax): 278 ± 93 ng/mL
- Tmax (in vivo; mouse, in vivo, mice, Oral 8 mg/kg, read-out: Tmax): 11.4 ± 5.4 min
- bioavailability (in vivo; mouse, in vivo, mice, printed in the Intravenous 2 mg/kg column, read-out: F (relative bioavailability)): 38%
- acute and relapsing EAE (mean clinical score) [2]: significantly suppresses acute and relapsing EAE
- hIL-17 production ([1]; 0.125 μM and 0.25 μM, one MS patient, 3 days): suppressed hIL-17 production
- IL-17 production in effector/memory human CD4 T cells ([1]; 0.125 μM, 22 treatment-naïve MS patients): significantly suppressed IL-17 production
- IL-17/Treg ratio ([1]; 22 treatment-naïve MS patients, compared to DMSO treated group): significantly lower
- IL-17 production in PBMCs from MS patients [1]: suppress IL-17 production
- patient numbers with % Decrease of IL-17 5-20% [1, 5]: 11
- patient numbers with % Decrease of IL-17 20-40% [1, 5]: 7
- patient numbers with % Decrease of IL-17/iTreg ratio 5-20% [1, 5]: 5
- patient numbers with % Decrease of IL-17/iTreg ratio 20-40% [1, 5]: 13
- patient numbers with % Decrease of IL-17/iTreg ratio <5% [1, 5]: 1
- patient numbers with % Decrease of IL-17/iTreg ratio >40% [1, 5]: 3
- patient numbers with % Decrease of IL-17 <5% [1, 5]: 1
- patient numbers with % Decrease of IL-17 >40% [1, 5]: 3
